Laboratory results published in patent publication US20240391862A1, “(1,4,5-TRISUBSTITUTED-1H-PYRAZOL-3-YL)OXY-2-ALKOXY ALKYL ACIDS AND THEIR DERIVATIVES, THEIR SALTS AND THEIR USE AS HERBICIDAL AGENTS” (Bayer AKtiengesellschaft, priority 2021, published 2024).

How the values were obtained:
Experiment in all cases: Post-emergence herbicidal effect, greenhouse pot test
ABUTH = type: in vivo, Abutilon theophrasti; settings: visual rating about 3 weeks after treatment
From the text: (§1) • ALOMY: Alopecurus myosuroides SETVI: Setaria viridis • AVEFA: Avena fatua POLCO: Fallopia convolvulus • AMARE: Amaranthus retroflexus ECHCG: Echinochloa crus-galli • LOLRJ: Lolium rigidum STEME: Stellaria media • VERPE: Veronica persica MATIN: Tripleurospermum inodorum • DIGSA: Digitaria sanguinalis ABUTH: Abutylon threophrasti • TRZAS: Triticum aestivum VIOTR: Viola tricolor • BRSNW: Brassica napus ZEAMX: Zea mays • PHBPU: Ipomoea purpurea GLXMA: Glycine max • ORYSA: Oryza sativa HORMU: Hordeum murinum
(§2) Seeds of monocotyledonous and dicotyledonous weeds and crop plants are placed in sandy loam in plastic or organic planting pots, covered with soil and cultivated in a greenhouse under controlled growth conditions. 2 to 3 weeks after sowing, the trial plants are treated at the one-leaf stage. The compounds of the invention, formulated in the form of wettable powders (WP) or as emulsion concentrates (EC), are then sprayed onto the green parts of the plants as aqueous suspension or emulsion with addition of 0.5% additive at a water application rate of 600 l/ha (converted). After the test plants have been kept in the greenhouse under optimum growth conditions for about 3 weeks, the activity of the preparations is rated visually in comparison to untreated controls. For example, 100% activity=the plants have died, 0% activity=like control plants.
(§3) Tables 20a to 38c below show the effects/crop compatibilities of selected compounds of the general formula (I) on various harmful plants at an application rate corresponding to 20 to 320 g/ha, which were obtained by the trial procedure specified above.

ALOMY = type: in vivo, Alopecurus myosuroides; settings: visual rating about 3 weeks after treatment
From the text: as §1, §2, §3

AVEFA = type: in vivo, Avena fatua; settings: visual rating about 3 weeks after treatment
From the text: as §1, §2, §3

ECHCG = type: in vivo, Echinochloa crus-galli
From the text: as §1, §2, §3

LOLRI = type: in vivo, Lolium rigidum
From the text: as §1, §2, §3

MATIN = type: in vivo, Tripleurospermum inodorum
From the text: as §1, §2, §3

PHBPU = type: in vivo, Ipomoea purpurea
From the text: as §1, §2, §3

POLCO = type: in vivo, Fallopia convolvulus
From the text: as §1, §2, §3

SETVI = type: in vivo, Setaria viridis
From the text: as §1, §2, §3

VERPE = type: in vivo, Veronica persica
From the text: as §1, §2, §3

VIOTR = type: in vivo, Viola tricolor
From the text: as §1, §2, §3

KCHSC = type: in vivo; settings: 320 g/ha
Experimental: as §2, with “plants. Tables 20a to 38c below show the effects/crop compatibilities of selected compounds of the general formula (I) on various harmful plants at an application rate corresponding to 20 to 320 g/ha, which were obtained by the trial procedure specified above.” for “plants.”

AMARE = type: in vivo, Amaranthus retroflexus; settings: Amaranthus retroflexus, 504 h, 320 g/ha, visual rating about 3 weeks after treatment, read-out: Post-emergence effect against AMARE
From the text: as §1, §2, §3

COC(Oc1nn(-c2cc(F)ccc2F)c(-c2cncc(F)c2)c1C1CC1)C(=O)O (stereo not shown) [Example I-109]
90%: pest or weed control at 320 g/ha (ABUTH; Abutilon theophrasti, 504 h, 320 g/ha, read-out: Post-emergence effect against ABUTH) | pest or weed control at 320 g/ha (ALOMY; Alopecurus myosuroides, 504 h, 320 g/ha, read-out: Post-emergence effect against ALOMY) | pest or weed control at 320 g/ha (AVEFA; Avena fatua, 504 h, 320 g/ha, read-out: Post-emergence effect against AVEFA) | pest or weed control at 80 g/ha (ECHCG; Echinochloa crus-galli, 504 h, 80 g/ha, read-out: Post-emergence effect against ECHCG in %) | pest or weed control at 320 g/ha (ECHCG; Echinochloa crus-galli, 504 h, 320 g/ha, read-out: Post-emergence effect against ECHCG in %) | pest or weed control at 80 g/ha (LOLRI; Lolium rigidum, 504 h, 80 g/ha, read-out: Post-emergence effect against LOLRI in %) | pest or weed control at 320 g/ha (LOLRI; Lolium rigidum, 504 h, 320 g/ha, read-out: Post-emergence effect against LOLRI in %) | pest or weed control at 80 g/ha (PHBPU; Ipomoea purpurea, 504 h, 80 g/ha, read-out: Post-emergence effect against PHBPU in %) | pest or weed control at 320 g/ha (PHBPU; Ipomoea purpurea, 504 h, 320 g/ha, read-out: Post-emergence effect against PHBPU in %) | pest or weed control at 320 g/ha (POLCO; Fallopia convolvulus, 504 h, 320 g/ha, read-out: Post-emergence effect against POLCO in %) | pest or weed control at 80 g/ha (VIOTR; Viola tricolor, 504 h, 80 g/ha, read-out: Post-emergence effect against VIOTR in %) | pest or weed control at 320 g/ha (VIOTR; Viola tricolor, 504 h, 320 g/ha, read-out: Post-emergence effect against VIOTR in %)
80%: pest or weed control at 20 g/ha (ABUTH; Abutilon theophrasti, 504 h, 20 g/ha, read-out: Post-emergence effect against ABUTH) | pest or weed control at 80 g/ha (ABUTH; Abutilon theophrasti, 504 h, 80 g/ha, read-out: Post-emergence effect against ABUTH) | pest or weed control at 80 g/ha (AVEFA; Avena fatua, 504 h, 80 g/ha, read-out: Post-emergence effect against AVEFA) | pest or weed control at 20 g/ha (ECHCG; Echinochloa crus-galli, 504 h, 20 g/ha, visual rating about 3 weeks after treatment, read-out: Post-emergence effect against ECHCG) | pest or weed control at 320 g/ha (MATIN; Tripleurospermum inodorum, 504 h, 320 g/ha, read-out: Post-emergence effect against MATIN in %) | pest or weed control at 80 g/ha (POLCO; Fallopia convolvulus, 504 h, 80 g/ha, read-out: Post-emergence effect against POLCO in %) | pest or weed control at 320 g/ha (SETVI; Setaria viridis, 504 h, 320 g/ha, read-out: Post-emergence effect against SETVI in %) | pest or weed control at 20 g/ha (VERPE; Veronica persica, 504 h, 20 g/ha, read-out: Post-emergence effect against VERPE in %) | pest or weed control at 80 g/ha (VERPE; Veronica persica, 504 h, 80 g/ha, read-out: Post-emergence effect against VERPE in %) | pest or weed control at 320 g/ha (VERPE; Veronica persica, 504 h, 320 g/ha, read-out: Post-emergence effect against VERPE in %) | pest or weed control at 320 g/ha (KCHSC; 504 h, read-out: Post-emergence effect against KCHSC in %)

COC(Oc1nn(-c2cc(F)ccc2F)c(-c2cncc(F)c2)c1C1CC1)C(=O)O (stereo not shown) [Example I-110]
80%: Post-emergence effect against ABUTH (ABUTH; 20 g/ha) | pest or weed control at 80 g/ha (ALOMY; Alopecurus myosuroides, 504 h, 80 g/ha, read-out: Post-emergence effect against ALOMY) | pest or weed control at 320 g/ha (AMARE) | Post-emergence effect against MATIN in % (MATIN; 320 g/ha) | pest or weed control at 80 g/ha (MATIN; Tripleurospermum inodorum, 504 h, 80 g/ha, read-out: Post-emergence effect against MATIN in %) | Post-emergence effect against POLCO in % (POLCO; 80 g/ha) | pest or weed control at 20 g/ha (POLCO; Fallopia convolvulus, 504 h, 20 g/ha, read-out: Post-emergence effect against POLCO in %) | Post-emergence effect against SETVI in % (SETVI; 320 g/ha) | pest or weed control at 80 g/ha (SETVI; Setaria viridis, 504 h, 80 g/ha, read-out: Post-emergence effect against SETVI in %) | Post-emergence effect against VERPE in % (VERPE; 20 g/ha) | Post-emergence effect against VERPE in % (VERPE; 80 g/ha) | Post-emergence effect against VIOTR in % (VIOTR; 80 g/ha) | Post-emergence effect against VIOTR in % (VIOTR; 320 g/ha) | pest or weed control at 20 g/ha (VIOTR; Viola tricolor, 504 h, 20 g/ha, read-out: Post-emergence effect against VIOTR in %) | Post-emergence effect against KCHSC in % (KCHSC)
100%: Post-emergence effect against ALOMY (ALOMY; 320 g/ha)
90%: Post-emergence effect against ABUTH (ABUTH; 80 g/ha) | Post-emergence effect against ABUTH (ABUTH; 320 g/ha) | Post-emergence effect against AVEFA (AVEFA; 80 g/ha) | Post-emergence effect against AVEFA (AVEFA; 320 g/ha) | Post-emergence effect against ECHCG (ECHCG; 20 g/ha, visual rating about 3 weeks after treatment) | Post-emergence effect against ECHCG in % (ECHCG; 80 g/ha) | Post-emergence effect against ECHCG in % (ECHCG; 320 g/ha) | Post-emergence effect against LOLRI in % (LOLRI; 320 g/ha) | Post-emergence effect against PHBPU in % (PHBPU; 80 g/ha) | Post-emergence effect against PHBPU in % (PHBPU; 320 g/ha) | pest or weed control at 20 g/ha (PHBPU; Ipomoea purpurea, 504 h, 20 g/ha, read-out: Post-emergence effect against PHBPU in %) | Post-emergence effect against POLCO in % (POLCO; 320 g/ha) | Post-emergence effect against VERPE in % (VERPE; 320 g/ha)
